{"source": "patent US20080200393A1", "about": "“Method and Composition For Treating Angiogenesis and For Preventing Cancer Progression and Metastasis Comprising a Prostate Secretory Protein (Psp94) Family Member” (Ambrillia Biopharma Inc., priority 2004, published 2008)", "key": {"[1]": {"tested_on": "proMMP-2", "experiment": "Gelatin zymography of HUVEC conditioned media", "assay_type": "cell-based, Human", "method": "Zymography. Zymography is a technique generally used to analyze the activity of matrix metalloproteinases (MMPs) in biological samples. It involves the electrophoretic separation of proteins under denaturing (Sodium Dodecyl Sulfate (SDS)) but non-reducing conditions through a polyacrylamide gel containing gelatin (for example, 10% gel containing 1 mg/ml gelatin for MMP-9 and MMP-2 assays). The resolved proteins are re-natured by exchanging SDS with a non-ionic detergent such as Triton X-100 and the gel is incubated in an incubation buffer for activation of MMP-2 and MMP-9 (for example at 37° C. for 18 hrs). The gel is stained with Coomassie blue and the MMP-2 and MMP-9 bands may be visualized as clear bands against a blue background (i.e., the MMPs degrade the gelatin and are visualized as clear bands; pro MMP-2 is 68 kDa and pro-MMP-9 is 92 kDa). These bands can be quantified using densitometry. For example, prior to stimulation, quiescent HUVEC were serum-starved for 16 h in the presence or absence of PCK3145 or PD98059 and then stimulated with VEGF. The conditioned media were collected 24 h after stimulation, and clarified by centrifugation. Identical volume of conditioned media were mixed with non reducing Laemmli sample buffer and subjected to 7.5% SDS-polyacrylamide gels containing 1 mg/ml gelatin (Sigma). The gels were then incubated for 30 min at room temperature twice in 2.5% (v/v) Triton X-100 and rinsed five times in doubly distilled water. The gels were incubated at 37° C. for a further 18 h in 200 mM NaCl/5 mM CaCl2/0.02% (v/v) Brij-35/50 mM Tris/HCl buffer (pH 7.6), then stained with 0.1% Coomassie Brilliant Blue R-250, followed by destaining in 10% (v/v) acetic acid/30% (v/v) methanol in water. Gelatinolytic activity was detected as unstained bands on a blue background.\nThe effect of the PCK3145 derivative (SEQ ID NO.:7) on MMP extracellular levels was thus assessed by gelatin-zymography in the conditioned media of serum-starved HUVEC. After 16 hours of starvation, HUVEC were stimulated with VEGF in the presence or not of the PCK3145 derivative. […]"}, "[2]": {"tested_on": "total MMP-9 (human active and pro-MMP-9)", "experiment": "Total MMP-9 ELISA on plasma of patients, Phase IIa clinical trial", "assay_type": "in vivo", "conditions": "for MMP-9 level in plasma, D27C3: day 27 of cycle 3", "text": "The clinical trial is a multiple ascending dose, open-label, Phase IIa study evaluating the safety and tolerability of PCK3145 derivative; SEQ ID NO.:7 administered intravenously in patients with metastatic hormone resistant prostatic cancer (HRPC). The study is not randomized. Patients have been enrolled sequentially and chronologically.\nThe drug was therefore administered to patients characterized as having metastatic adenocarcinoma of the prostate, stage IV prostatic cancer and as having a metastatic hormone resistant prostatic cancer. Four patients per cohort and 4 ascending doses were evaluated. The ascending doses were 5, 20, 40 and 80 mg/m^2. The dose escalation decision has been based on dose-limiting toxicity (DLT).\nThe 33-day cycle of treatment consisted of a PCK3145 derivative; SEQ ID NO.:7 administration three times per week (day 1, 3 and 5) for 26 days, followed by a 7 day post-treatment observation period. The maximum tolerated dose (MTD) is the dose level below the one inducing grade 3 or 4 drug related toxicity (DLT) in two patients from a cohort of a minimum of 4 patients. Only DLT's observed during the first cycle have been used for the dose escalation decision.\nThe treatment period consisted of intravenous administration of the PCK3145 derivative (SEQ ID NO.:5 derivative) i.e., SEQ ID NO.:7, three times per week (day 1, 3 and 5) for 26 consecutive days during which patients were closely monitored and undergone regular examination. After a week of treatment break and in the absence of toxicity and disease progression, patients optionally received additional treatment cycles.\nBiological samples were drawn during different time points of the study for the purpose of safety monitoring and have been assayed for MMP-9 levels. Plasma samples were placed on dry ice and stored frozen (approximately −70° C.) and subsequently analyzed for total MMP-9 levels.\nMMP-9 assay methodology. An Elisa assay measuring total MMP-9, i.e., human active and pro-MMP-9, (Quantikine®), Cat. No.: DMP900, R&D Systems Inc.) was performed on plasma-heparin samples. Plasma samples have been collected from individuals at day 1 (before treatment) and at day 27 of each treatment cycle.\nThe Quantikine® MMP-9 immunoassay is a solid phase ELISA designed to measure total MMP-9 (92 kDa pro- and 82 kDa active forms) in serum, plasma, saliva, urine and cell culture supernatants. It is calibrated with CHO-cells expressed recombinant human pro-MMP-9 and the antibodies were raised against the recombinant factor. Both antibodies also recognize recombinant human active MMP-9.\nThe assay employs the quantitative sandwich enzyme immunoassay technique. A monoclonal antibody specific for MMP-9 has been pre-coated onto a microplate. Standards and samples are added into the wells, and MMP-9 is thus bound by the immobilized antibody. After washing away unbound substances, an enzyme-linked polyclonal antibody specific for MMP-9 is added to the wells. Following a wash to remove unbound antibody-enzyme reagent, a substrate solution is added to the wells and color develops in proportion to the amount of total MMP-9 (pro and/or active) bound in the initial step. The color development is stopped and the intensity of the color is measured."}, "[3]": {"tested_on": "ERK", "experiment": "Intrinsic effect on ERK phosphorylation (Western blot)", "assay_type": "cell-based", "method": "The induction of the MAPK pathway by the PCK3145 derivative is further confirmed by the rapid and transient induction of ERK phosphorylation between 5-10 minutes (FIG. 8B) and is shown to be dose-dependent (FIG. 8C). Finally, the effects of the PCK3145 derivative were also compared to those of a scrambled peptide."}}, "note": "Values joined by “and” are separate entries in the source; they are usually repeats but may differ in a detail not shown here. Equal entries are not always repeated. Where no end group is shown, it is not given here."}
{"sequence": "EWQTDNCETCTCYET (cysteine pairing not given here) [PCK3145 derivative, PCK3145 derivative with acetylaminomethyl groups on the three cysteines]", "values": [{"measurement": "inhibition of VEGF-induced proMMP-2 secretion", "setting": "[1]; HUVEC, 300 μg/ml", "result": "approximately 50%"}, {"measurement": "downregulation of basal proMMP-2 levels in the extracellular media", "setting": "[1]; serum-starved HUVEC, 24 hours treatment", "result": "approximately 35%"}, {"measurement": "change in MMP-9 levels compared to baseline", "setting": "[2]; elevated MMP-9 category (patients A, B, C, D), after one cycle", "result": "significant decrease"}, {"measurement": "MMP-9 level in plasma, D27C2", "setting": "[2]; elevated baseline MMP-9 patients, day 27 of cycle 2", "result": "55.6 µg/L and 37.7 µg/L"}, {"measurement": "MMP-9 level in plasma, D27C3", "setting": "[2]; elevated baseline MMP-9 patients", "result": 54.5, "unit": "µg/L"}, {"measurement": "MMP-9 level in plasma, D27C4", "setting": "[2]; elevated baseline MMP-9 patients, day 27 of cycle 4", "result": 39.4, "unit": "µg/L"}, {"measurement": "MMP-9 level in plasma, D27C3", "setting": "[2]; normal baseline MMP-9 patients", "result": 101.8, "unit": "µg/L"}, {"measurement": "change in MMP-9 levels compared to baseline", "setting": "[2]; normal value MMP-9 category (patients E, F, G, H, I), after one cycle", "result": "no significant decrease"}, {"measurement": "decrease in MMP-9 levels compared to baseline", "setting": "[2]; patient A, after cycle 1", "result": "up to 89%"}, {"measurement": "decrease in MMP-9 levels compared to baseline", "setting": "[2]; patient B, after cycle 1", "result": 41, "unit": "%"}, {"measurement": "reduction of baseline level of MMP-9", "setting": "[2]; patient B, treatment cycle 2", "result": 64, "unit": "%"}, {"measurement": "reduction of baseline level of MMP-9", "setting": "[2]; patient B, treatment cycle 3", "result": 65, "unit": "%"}, {"measurement": "reduction of baseline level of MMP-9", "setting": "[2]; patient B, treatment cycle 4", "result": 75, "unit": "%"}, {"measurement": "decrease in MMP-9 levels compared to baseline", "setting": "[2]; patient C, cycle 1", "result": 90, "unit": "%"}, {"measurement": "reduction in MMP-9 levels", "setting": "[2]; patient C, cycle 2", "result": 76, "unit": "%"}, {"measurement": "decrease in MMP-9 levels compared to baseline", "setting": "[2]; patient D, cycle 1", "result": 34, "unit": "%"}, {"measurement": "change in MMP-9 levels compared to baseline", "setting": "[2]; patient E, after 3 cycles", "result": "no MMP-9 decrease"}, {"measurement": "change in MMP-9 levels compared to baseline", "setting": "[2]; patients E and G, after 2 cycles", "result": "no decrease"}, {"measurement": "induction of ERK phosphorylation, dose dependence", "setting": "[3]; dose-response", "result": "dose-dependent"}, {"measurement": "time of rapid and transient induction of ERK phosphorylation", "setting": "[3]; time-course", "result": "5 to 10", "unit": "min"}]}
